Results: the supplement of paper PMC8617591

Experiments:
[1] = test system: Mycobacterium tuberculosis Erdman (autoluminescent); assay: FIC50 (Loewe) at 50% inhibition (log2); higher = more antagonistic
Procedure: (§1)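 DiaMOND equipotent two-drug combination dose responses against autoluminescent M. tuberculosis Erdman in 8 in vitro models. Read-out is OD600, or luminescence for the intracellular and dormancy models, normalised to untreated wells. Hill-fit Einf, AUC25 and GRinf are potency metrics; FIC50 and FIC90 are Loewe-additivity fractional inhibitory concentrations, given as log2 (negative = synergy). Replicates are averaged.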

[2] = test system: Mycobacterium tuberculosis Erdman (autoluminescent); assay: FIC90 (Loewe) at 90% inhibition (log2); higher = more antagonistic
Procedure: as §1

[3] = test system: Mycobacterium tuberculosis Erdman (autoluminescent); assay: AUC25, normalised area under dose response up to IC25 (fraction (0-1)); higher = more potent at low dose
Procedure: as §1

[4] = test system: Mycobacterium tuberculosis Erdman (autoluminescent); assay: Einf, fitted maximum growth inhibition of combination (fraction); higher = stronger maximal inhibition
Procedure: as §1

[5] = test system: Mycobacterium tuberculosis Erdman (autoluminescent); assay: GRinf, maximum normalised growth rate inhibition (unitless (-1 to 1)); higher = less effect (negative = killing)
Procedure: as §1

CC(=O)NC[C@H]1CN(c2ccc(N3CCOCC3)c(F)c2)C(=O)O1 [linezolid] + O=[N+]([O-])c1cn2c(n1)OC[C@@H](OCc1ccc(OC(F)(F)F)cc1)C2 [pretomanid]
Details	AUC25, [3]	Einf, [4]	FIC50, [1]	FIC90, [2]	GRinf, [5]
in vitro model: acidic pH 5.7, time point: constant (~7 days, model-specific)	0.116	0.89	0.583	–	-0.559
in vitro model: acidic pH 5.7, time point: terminal (~4-5 doublings, model-specific)	0.0893	0.984	0.324	0.246	-0.355
in vitro model: intracellular J774, time point: constant = terminal	–	0.993	–	1.06	-0.54

Details	AUC25, [3]	Einf, [4]	FIC50, [1]	FIC90, [2]	GRinf, [5]
in vitro model: butyrate, time point: constant (~7 days, model-specific)	0.0973	0.907	0.595	1.47	0.0334
in vitro model: butyrate, time point: terminal (~4-5 doublings, model-specific)	0.0643	0.947	0.4	0.493	0.0161
in vitro model: cholesterol 0.05 mM, time point: constant (~7 days, model-specific)	0.13	0.708	-0.367	–	-0.103
in vitro model: cholesterol 0.05 mM, time point: terminal (~4-5 doublings, model-specific)	0.142	0.942	-0.293	0.00527	-0.182
in vitro model: cholesterol-high 0.2 mM, time point: constant (~7 days, model-specific)	0.0977	0.869	-0.451	-0.477	-0.114
in vitro model: cholesterol-high 0.2 mM, time point: terminal (~4-5 doublings, model-specific)	0.111	0.992	-0.228	0.311	-0.548
in vitro model: dormancy (butyrate + nitrate, low O2), time point: constant (~7 days, model-specific)	0.0359	0.925	0.74	0.509	0.0858
in vitro model: dormancy (butyrate + nitrate, low O2), time point: terminal (~4-5 doublings, model-specific)	0.0385	0.991	0.255	0.232	-0.248
in vitro model: standard 7H9 glycerol, time point: constant = terminal	0.0819	0.971	0.34	0.309	-0.171
in vitro model: valerate, time point: constant (~7 days, model-specific)	0.102	0.802	1.02	–	0.0728
in vitro model: valerate, time point: terminal (~4-5 doublings, model-specific)	0.123	0.951	-0.689	0.943	0.0215

COc1c(N2C[C@@H]3CCCN[C@@H]3C2)c(F)cc2c(=O)c(C(=O)O)cn(C3CC3)c12 [moxifloxacin] + CO[C@H]1/C=C/O[C@@]2(C)Oc3c(C)c(O)c4c(O)c(c(/C=N/N5CCN(C6CCCC6)CC5)c(O)c4c3C2=O)NC(=O)/C(C)=C\C=C\[C@H](C)[C@H](O)[C@@H](C)[C@@H](O)[C@@H](C)[C@H](OC(C)=O)[C@@H]1C [rifapentine]
Details	AUC25, [3]	Einf, [4]	FIC50, [1]	FIC90, [2]	GRinf, [5]
in vitro model: acidic pH 5.7, time point: constant (~7 days, model-specific)	0.0469	0.776	0.389	–	0.0776
in vitro model: acidic pH 5.7, time point: terminal (~4-5 doublings, model-specific)	0.0544	0.962	0.463	0.271	-0.0233
in vitro model: intracellular J774, time point: constant = terminal	–	0.973	–	0.684	-0.226

Details	AUC25, [3]	Einf, [4]	FIC50, [1]	FIC90, [2]	GRinf, [5]
in vitro model: butyrate, time point: constant (~7 days, model-specific)	0.0933	0.893	0.555	0.73	0.0724
in vitro model: butyrate, time point: terminal (~4-5 doublings, model-specific)	0.0734	0.956	0.515	0.586	0.0272
in vitro model: cholesterol 0.05 mM, time point: constant (~7 days, model-specific)	0.131	0.594	0.777	–	-0.074
in vitro model: cholesterol 0.05 mM, time point: terminal (~4-5 doublings, model-specific)	0.0876	0.887	0.482	1.32	-0.0906
in vitro model: cholesterol-high 0.2 mM, time point: constant (~7 days, model-specific)	0.082	0.903	0.798	-0.159	-0.242
in vitro model: cholesterol-high 0.2 mM, time point: terminal (~4-5 doublings, model-specific)	0.0641	0.996	0.807	0.727	-0.866
in vitro model: dormancy (butyrate + nitrate, low O2), time point: constant (~7 days, model-specific)	0.0771	0.915	0.269	0.0994	0.17
in vitro model: dormancy (butyrate + nitrate, low O2), time point: terminal (~4-5 doublings, model-specific)	0.0532	0.985	0.72	0.719	-0.231
in vitro model: standard 7H9 glycerol, time point: constant = terminal	0.0584	0.893	0.509	0.225	0.0707
in vitro model: valerate, time point: constant (~7 days, model-specific)	0.0746	0.844	0.4	–	0.0459
in vitro model: valerate, time point: terminal (~4-5 doublings, model-specific)	0.0547	0.933	0.541	1.69	0.0582

COc1c(N2C[C@@H]3CCCN[C@@H]3C2)c(F)cc2c(=O)c(C(=O)O)cn(C3CC3)c12 [moxifloxacin] + CO[C@H]1/C=C/O[C@@]2(C)Oc3c(C)c(O)c4c(O)c(c(/C=N/N5CCN(C)CC5)c(O)c4c3C2=O)NC(=O)/C(C)=C\C=C\[C@H](C)[C@H](O)[C@@H](C)[C@@H](O)[C@@H](C)[C@H](OC(C)=O)[C@@H]1C [rifampicin]
Details	AUC25, [3]	Einf, [4]	FIC50, [1]	FIC90, [2]	GRinf, [5]
in vitro model: acidic pH 5.7, time point: constant (~7 days, model-specific)	0.0689	0.781	0.367	–	0.0866
in vitro model: acidic pH 5.7, time point: terminal (~4-5 doublings, model-specific)	0.0663	0.968	0.382	0.156	-0.0508
in vitro model: intracellular J774, time point: constant = terminal	–	0.985	–	0.644	-0.307

Details	AUC25, [3]	Einf, [4]	FIC50, [1]	FIC90, [2]	GRinf, [5]
in vitro model: butyrate, time point: constant (~7 days, model-specific)	0.107	0.886	0.528	0.508	0.0889
in vitro model: butyrate, time point: terminal (~4-5 doublings, model-specific)	0.0896	0.956	0.435	0.598	0.0327
in vitro model: cholesterol 0.05 mM, time point: constant (~7 days, model-specific)	0.117	0.62	0.744	–	0.145
in vitro model: cholesterol 0.05 mM, time point: terminal (~4-5 doublings, model-specific)	0.091	0.885	0.35	-0.321	-0.0751
in vitro model: cholesterol-high 0.2 mM, time point: constant (~7 days, model-specific)	0.0744	0.8	0.432	–	-0.0793
in vitro model: cholesterol-high 0.2 mM, time point: terminal (~4-5 doublings, model-specific)	0.066	0.985	0.68	0.43	-0.57
in vitro model: dormancy (butyrate + nitrate, low O2), time point: constant (~7 days, model-specific)	0.071	0.923	0.513	-0.28	0.0564
in vitro model: dormancy (butyrate + nitrate, low O2), time point: terminal (~4-5 doublings, model-specific)	0.059	0.98	0.589	0.752	-0.197
in vitro model: standard 7H9 glycerol, time point: constant = terminal	0.0477	0.828	0.486	–	0.308
in vitro model: valerate, time point: constant (~7 days, model-specific)	0.04	0.842	0.724	–	0.085
in vitro model: valerate, time point: terminal (~4-5 doublings, model-specific)	0.0278	0.925	0.717	0.437	0.0646

COc1c(N2C[C@@H]3CCCN[C@@H]3C2)c(F)cc2c(=O)c(C(=O)O)cn(C3CC3)c12 [moxifloxacin] + NC(=O)c1cnccn1 [pyrazinamide]
Details	AUC25, [3]	Einf, [4]	FIC50, [1]	FIC90, [2]	GRinf, [5]
in vitro model: acidic pH 5.7, time point: constant (~7 days, model-specific)	0.105	0.748	-1.4	–	-0.479
in vitro model: acidic pH 5.7, time point: terminal (~4-5 doublings, model-specific)	0.0766	0.958	0.112	-1.08	-0.337
in vitro model: intracellular J774, time point: constant = terminal	–	0.992	–	0.544	-0.418

Details	AUC25, [3]	Einf, [4]	FIC50, [1]	FIC90, [2]	GRinf, [5]
in vitro model: butyrate, time point: constant (~7 days, model-specific)	0.114	0.922	0.244	0.945	-0.0871
in vitro model: butyrate, time point: terminal (~4-5 doublings, model-specific)	0.076	0.967	0.181	0.416	0.0175
in vitro model: cholesterol 0.05 mM, time point: constant (~7 days, model-specific)	0.12	0.628	–	–	0.0508
in vitro model: cholesterol 0.05 mM, time point: terminal (~4-5 doublings, model-specific)	0.135	0.936	-0.139	1.9	-0.173
in vitro model: cholesterol-high 0.2 mM, time point: constant (~7 days, model-specific)	0.0967	0.93	0.32	–	-0.314
in vitro model: cholesterol-high 0.2 mM, time point: terminal (~4-5 doublings, model-specific)	0.0857	0.997	0.528	0.356	-0.695
in vitro model: dormancy (butyrate + nitrate, low O2), time point: constant (~7 days, model-specific)	0.0895	0.921	-0.473	-0.106	0.0154
in vitro model: dormancy (butyrate + nitrate, low O2), time point: terminal (~4-5 doublings, model-specific)	0.0636	0.983	-0.404	-0.148	-0.105
in vitro model: standard 7H9 glycerol, time point: constant = terminal	0.0774	0.974	–	–	-0.163
in vitro model: valerate, time point: constant (~7 days, model-specific)	0.0818	0.834	0.51	–	-0.121
in vitro model: valerate, time point: terminal (~4-5 doublings, model-specific)	0.0462	0.917	0.399	0.0879	0.0483
